Source: paper PMC10897015, “Investigation of anti-nociceptive, anti-inflammatory potential and ADMET studies of pure compounds isolated from Isodon rugosus Wall. ex Benth” (Frontiers in Pharmacology, 2024)
“And” between values parts separate entries of the source, which are not always exact repeats. Equal entries are not always repeated. Marks after values point to notes of the source that are not given here.

How the values were obtained:
Type in all cases: in vivo
mice = test: Carrageenan-induced paw edema; conditions: for % edema volume inhibition (mean): aspirin 10 mg/kg; for Paw edema percent inhibition, individual values / Paw edema, individual values: single animals
Experimental: The animals under study were divided into different groups. Prior to the experiment, the animals had only access to water. […] Additionally, the isolated compounds being tested were given 30 min before injecting 0.05 ml of 1% carrageenan into the sub-plantar region of the paw. To measure the volume changes in the paw, a digital plethysmometer was employed. Readings were taken before and after the carrageenan injection at hourly intervals over a total period of 5 h.

Swiss albino mice [1] = test: Acetic acid-induced writhing test; conditions: for Writhes, individual values: single animals; for % analgesic activity (writhing inhibition) / Mean writhes: oral
Experimental: An anti-nociceptive assessment was performed on Swiss albino mice of both sexes, sourced from the National Institute of Health, Islamabad, Pakistan. […] Mice of either sex were divided into different groups, with five mice in each group. The test samples were carefully administered orally, with doses of 250, 500, 1000, and 2000 mg/kg.
I. rugosus was evaluated for its analgesic potential through an acetic acid-induced writhing test. Oral administration of the test samples was carried out using specified doses. After 30 min of interval, 10 ml/kg of acetic acid (0.6%) was injected into the mice. Group I served as the control and received 0.5% Tween-80 (3 ml/kg), group II received diclofenac sodium (10 mg/kg), and groups III and IV received test compounds. The count of writhes was recorded between 5 and 30 min, following the i/p injection of acetic acid ([Franzotti et al., 2000]).

Swiss albino mice [2] = test: Hot plate test, involvement of adrenergic receptors; conditions: single animals
Experimental: The analgesic effects of the isolated compounds were measured using the hot plate method at a monitored temperature of 55 ± 0.2°C. The Swiss albino mice were positioned on the heated surface of the hot plate, and the period from placement to the onset of licking their hind paws or starting jump movements was noted as the response latency (thermal reactions). The test compounds were injected intraperitoneally. […] The animal models were checked for thermal reactions at various time intervals after sample administration.
The outcomes of the positive control and tested compounds were compared in animals pretreated with yohimbine. […] Additionally, clonidine at a dose of 3 μg/kg was intravenously administered. The animals were then subjected to the hot plate method, as reported before.

## O=C(CCc1ccc(O)cc1)c1c(O)cc(O)cc1O [Compound 2, 2-4-4-6-tetrahydroxy-dihydrochalcone]
mice; 1st hour after carrageenan, listed as Comp 2
  % edema volume inhibition (mean): 36.72%
mice; 2nd hour after carrageenan
  % edema volume inhibition (mean): 37.45%
mice; 3rd hour after carrageenan
  % edema volume inhibition (mean): 39.6788%
mice; 4th hour after carrageenan
  % edema volume inhibition (mean): 32.922%
mice; 5th hour after carrageenan
  % edema volume inhibition (mean): 29.246%
mice; hour 1, listed as Comp 2
  Paw edema percent inhibition, individual values: 42.03% and 38.64% and 36.29% and 31.91% and 34.73%
  Paw edema, individual values: 0.44 and 0.47 and 0.488 and 0.521 and 0.5
mice; hour 2, listed as Comp 2
  Paw edema percent inhibition, individual values: 38.57% and 37.62% and 36.26% and 39.35%
  Paw edema, individual values: 0.454 and 0.461 and 0.471 and 0.45 and 0.457
mice; hour 3, listed as Comp 2
  Paw edema percent inhibition, individual values: 40.08% and 38.48% and 38.75% and 40.75% and 40.334%
  Paw edema, individual values: 0.45 and 0.462 and 0.46 and 0.445 and 0.449
mice; hour 4, listed as Comp 2
  Paw edema percent inhibition, individual values: 32.11% and 31.19% and 31.85% and 32.63% and 36.83%
  Paw edema, individual values: 0.518 and 0.525 and 0.52 and 0.514 and 0.482
mice; hour 5, listed as Comp 2
  Paw edema percent inhibition, individual values: 29.96% and 29.27% and 30.23% and 28.18% and 28.59%
  Paw edema, individual values: 0.512 and 0.517 and 0.51 and 0.525 and 0.522
Swiss albino mice [1]; 10mg, listed as Comp 2
  Writhes, individual values: 59.2 and 60.82 and 60.05
Swiss albino mice [1]; 20mg, listed as Comp 2
  Writhes, individual values: 55.1 and 54.26 and 56.7
Swiss albino mice [1]; 25mg, listed as Comp 2
  Writhes, individual values: 49.8 and 50.8 and 49.1
Swiss albino mice [1]; 50mg, listed as Comp 2
  Writhes, individual values: 41.02 and 43.67 and 40.12
Swiss albino mice [1]; dose 10 mg/kg
  % analgesic activity (writhing inhibition): 1.86^ns %
Swiss albino mice [1]; dose 10 mg/kg, listed as compound 2, 10 mg/kg
  % analgesic activity (writhing inhibition): 01.86%
Swiss albino mice [1]; dose 10 mg/kg, writhes counted 5-30 min after acetic acid, 10 mg/kg
  Mean writhes: 60.02 ± 0.90
Swiss albino mice [1]; dose 10 mg/kg, writhes counted 5-30 min after acetic acid, listed as Comp 2, 10 mg/kg
  Mean writhes: 60.0233
Swiss albino mice [1]; dose 20 mg/kg
  % analgesic activity (writhing inhibition): 9.49^ns %
  Mean writhes: 55.35 ± 0.87
Swiss albino mice [1]; dose 20 mg/kg, listed as Comp 2, 20 mg/kg
  Mean writhes: 55.3533
Swiss albino mice [1]; dose 25 mg/kg
  % analgesic activity (writhing inhibition): 18.41^* %
  Mean writhes: 49.90 ± 0.20
Swiss albino mice [1]; dose 25 mg/kg, listed as Comp 2, 25 mg/kg
  Mean writhes: 49.9
Swiss albino mice [1]; dose 50 mg/kg
  % analgesic activity (writhing inhibition): 31.98^*** %
  Mean writhes: 41.60 ± 1.24
Swiss albino mice [1]; dose 50 mg/kg, listed as Comp 2, 50 mg/kg
  Mean writhes: 41.6033
Swiss albino mice [2]; 30 Minutes
  Hot plate analysis (adrenergic), individual values: 3.19 and 3.88 and 3.2
Swiss albino mice [2]; 45 Minutes
  Hot plate analysis (adrenergic), individual values: 4.32 and 3.32 and 3.1
Swiss albino mice [2]; 15 minutes
  Hot plate analysis (adrenergic), individual values: 2.32 and 1.9 and 3.49
Swiss albino mice [2]; 60 minutes
  Hot plate analysis (adrenergic), individual values: 3.2 and 2.9 and 4.02
Swiss albino mice [2]; 90 minutes
  Hot plate analysis (adrenergic), individual values: 3.1 and 2.75 and 3.61

## O=C(O)C=Cc1ccc(O)c(O)c1 [Compound 1, 3,4-dihydroxy-cinnamic acid]
mice; 1st hour after carrageenan
  % edema volume inhibition (mean): 48.042%
mice; 2nd hour after carrageenan
  % edema volume inhibition (mean): 54.02%
mice; 3rd hour after carrageenan
  % edema volume inhibition (mean): 54.008%
mice; 4th hour after carrageenan
  % edema volume inhibition (mean): 56.40 ± 0.42%
mice; 4th hour after carrageenan, listed as Comp 1
  % edema volume inhibition (mean): 56.094%
mice; 5th hour after carrageenan
  % edema volume inhibition (mean): 53.076%
mice; at various intervals
  paw edema inhibition: > 50%
mice; hour 1, listed as Comp 1
  Paw edema percent inhibition, individual values: 50.39% and 48.96% and 47.65% and 47.13% and 46.08%
  Paw edema, individual values: 0.38 and 0.391 and 0.401 and 0.405 and 0.413
mice; hour 2, listed as Comp 1
  Paw edema percent inhibition, individual values: 53.99% and 52.64% and 55.48% and 52.1% and 55.89%
  Paw edema, individual values: 0.34 and 0.35 and 0.329 and 0.354 and 0.326
mice; hour 3, listed as Comp 1
  Paw edema percent inhibition, individual values: 54.46% and 55.39% and 53.53% and 52.73% and 53.93%
  Paw edema, individual values: 0.342 and 0.335 and 0.349 and 0.355 and 0.346
mice; hour 4, listed as Comp 1
  Paw edema percent inhibition, individual values: 56.75% and 58.72% and 56.09% and 54.78% and 54.13%
  Paw edema, individual values: 0.33 and 0.315 and 0.335 and 0.345 and 0.35
mice; hour 5, listed as Comp 1
  Paw edema percent inhibition, individual values: 54.17% and 56.22% and 50.75% and 53.76% and 50.48%
  Paw edema, individual values: 0.335 and 0.32 and 0.36 and 0.338 and 0.362
Swiss albino mice [1]; 10mg, listed as Comp 1
  Writhes, individual values: 60 and 58.9 and 55.1
Swiss albino mice [1]; 20mg, listed as Comp 1
  Writhes, individual values: 50.1 and 48.2 and 49.71
Swiss albino mice [1]; 25mg, listed as Comp 1
  Writhes, individual values: 45.64 and 46.56 and 47.8
Swiss albino mice [1]; 50mg, listed as Comp 1
  Writhes, individual values: 22.1 and 23.29 and 24.51
Swiss albino mice [1]; dose 10 mg/kg
  % analgesic activity (writhing inhibition): 05.10% and 05.10^ns %
Swiss albino mice [1]; dose 20 mg/kg
  % analgesic activity (writhing inhibition): 19.88% and 19.88^ns %
  Mean writhes: 49.33 ± 0.87
Swiss albino mice [1]; dose 20 mg/kg, listed as Comp 1, 20 mg/kg
  Mean writhes: 49.3367
Swiss albino mice [1]; dose 25 mg/kg
  % analgesic activity (writhing inhibition): 24.78%
  Mean writhes: 46.67 ± 0.87
Swiss albino mice [1]; dose 25 mg/kg, listed as Comp 1, 25 mg/kg
  Mean writhes: 46.6667
Swiss albino mice [1]; dose 50 mg/kg
  % analgesic activity (writhing inhibition): 62% and 61.90%
  Mean writhes: 23.30 ± 0.62
Swiss albino mice [1]; dose 50 mg/kg, listed as Comp 1, 50 mg/kg
  Mean writhes: 23.3
Swiss albino mice [2]; 30 Minutes
  Hot plate analysis (adrenergic), individual values: 4.43 and 5.1 and 6.1
Swiss albino mice [2]; 45 Minutes
  Hot plate analysis (adrenergic), individual values: 6.87 and 5.78 and 7.3
Swiss albino mice [2]; 15 minutes
  Hot plate analysis (adrenergic), individual values: 6.2 and 4.27 and 5.81
Swiss albino mice [2]; 60 minutes
  Hot plate analysis (adrenergic), individual values: 5.1 and 5.99 and 6.59
Swiss albino mice [2]; 90 minutes
  Hot plate analysis (adrenergic), individual values: 4.1 and 4.82 and 5.34
